Reference: PubChem BioAssay (NCI)
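Grown in 96-well plates, cells were treated for 48 hours with each compound at five concentrations. Insufficient inhibition: endpoint recorded as highest concentration tested. GI50: concentration for 50% inhibition of growth. TGI: total growth inhibition.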

Columns and labels:
Test in all cases: growth of human tumour cells (NCI), 48 h
786-0 renal = test system: 786-0 renal
A498 renal = test system: A498 renal
A549 NSCLC = test system: A549 NSCLC
ACHN renal = test system: ACHN renal
BT-549 breast = test system: BT-549 breast
CAKI-1 renal = test system: CAKI-1 renal
CCRF-CEM leukemia = test system: CCRF-CEM leukemia
COLO 205 colon = test system: COLO 205 colon
DU-145 prostate = test system: DU-145 prostate
EKVX NSCLC = test system: EKVX NSCLC
HCC-2998 colon = test system: HCC-2998 colon
HCT-116 colon = test system: HCT-116 colon
HCT-15 colon = test system: HCT-15 colon
HL-60(TB) leukemia = test system: HL-60(TB) leukemia
HOP-62 NSCLC = test system: HOP-62 NSCLC
HOP-92 NSCLC = test system: HOP-92 NSCLC
HS 578T breast = test system: HS 578T breast
HT29 colon = test system: HT29 colon
IGROV1 ovarian = test system: IGROV1 ovarian
K-562 leukemia = test system: K-562 leukemia
KM12 colon = test system: KM12 colon
LOX IMVI melanoma = test system: LOX IMVI melanoma
M14 melanoma = test system: M14 melanoma
MALME-3M melanoma = test system: MALME-3M melanoma
MCF7 breast = test system: MCF7 breast
MDA-MB-231 breast = test system: MDA-MB-231 breast
MDA-MB-435 = test system: MDA-MB-435
MOLT-4 leukemia = test system: MOLT-4 leukemia
NCI-H226 lung = test system: NCI-H226 lung
NCI-H23 lung = test system: NCI-H23 lung
NCI-H460 lung = test system: NCI-H460 lung
NCI-H522 lung = test system: NCI-H522 lung
NCI/ADR-RES ovarian = test system: NCI/ADR-RES ovarian
OVCAR-3 ovarian = test system: OVCAR-3 ovarian
OVCAR-4 ovarian = test system: OVCAR-4 ovarian
OVCAR-5 ovarian = test system: OVCAR-5 ovarian
OVCAR-8 ovarian = test system: OVCAR-8 ovarian
PC-3 prostate = test system: PC-3 prostate
RPMI-8226 leukemia = test system: RPMI-8226 leukemia
RXF 393 renal = test system: RXF 393 renal
SF-268 CNS = test system: SF-268 CNS
SF-295 CNS = test system: SF-295 CNS
SK-MEL-2 melanoma = test system: SK-MEL-2 melanoma
SK-MEL-28 melanoma = test system: SK-MEL-28 melanoma
SK-MEL-5 melanoma = test system: SK-MEL-5 melanoma
SK-OV-3 ovarian = test system: SK-OV-3 ovarian
SN12C renal = test system: SN12C renal
SNB-19 CNS = test system: SNB-19 CNS
SNB-75 CNS = test system: SNB-75 CNS
SR leukemia = test system: SR leukemia
SW-620 colon = test system: SW-620 colon
T-47D breast = test system: T-47D breast
TK-10 renal = test system: TK-10 renal
U251 CNS = test system: U251 CNS
UACC-257 melanoma = test system: UACC-257 melanoma
UACC-62 melanoma = test system: UACC-62 melanoma
UO-31 renal = test system: UO-31 renal

Compound: CC1OC(n2c3ccccc3c3c4c(c5c6ccccc6[nH]c5c32)C(=O)N(CCN[C@@H]2CCC[C@H]2N)C4=O)CC(O)C1O (some centres undefined)
- GI50 (786-0 renal): 2.35 µM
- TGI (786-0 renal): 9.9 µM
- GI50 (A498 renal): 1.93 µM
- TGI (A498 renal): 8.24 µM
- GI50 (A549 NSCLC): 2.48 µM
- TGI (A549 NSCLC): 9.17 µM
- GI50 (ACHN renal): 2.97 µM
- TGI (ACHN renal): 10.5 µM
- GI50 (BT-549 breast): 1.74 µM
- TGI (BT-549 breast): 8.85 µM
- GI50 (CAKI-1 renal): 6.24 µM
- TGI (CAKI-1 renal): 12.9 µM
- GI50 (CCRF-CEM leukemia): 1.25 µM
- TGI (CCRF-CEM leukemia): 6.27 µM
- GI50 (COLO 205 colon): 1.01 µM
- TGI (COLO 205 colon): 4.19 µM
- GI50 (DU-145 prostate): 2.22 µM
- TGI (DU-145 prostate): 8.31 µM
- GI50 (EKVX NSCLC): 1.8 µM
- TGI (EKVX NSCLC): 8.35 µM
- GI50 (HCC-2998 colon): 3.23 µM
- TGI (HCC-2998 colon): 11.4 µM
- GI50 (HCT-116 colon): 1.32 µM
- TGI (HCT-116 colon): 5.54 µM
- GI50 (HCT-15 colon): 5.88 µM
- TGI (HCT-15 colon): 12.6 µM
- GI50 (HL-60(TB) leukemia): 1.26 µM
- TGI (HL-60(TB) leukemia): 8.23 µM
- GI50 (HOP-62 NSCLC): 1.74 µM
- TGI (HOP-62 NSCLC): 7.24 µM
- GI50 (HOP-92 NSCLC): 2.31 µM
- TGI (HOP-92 NSCLC): 9.06 µM
- GI50 (HS 578T breast): 1.63 µM
- TGI (HS 578T breast): 9.73 µM
- GI50 (HT29 colon): 1.33 µM
- TGI (HT29 colon): 5.46 µM
- GI50 (IGROV1 ovarian): 1.87 µM
- TGI (IGROV1 ovarian): 9.68 µM
- GI50 (K-562 leukemia): 0.85 µM
- TGI (K-562 leukemia): 2.76 µM
- GI50 (KM12 colon): 1.35 µM
- TGI (KM12 colon): 6.11 µM
- GI50 (LOX IMVI melanoma): 0.835 µM
- TGI (LOX IMVI melanoma): 2.68 µM
- GI50 (M14 melanoma): 1.63 µM
- TGI (M14 melanoma): 7.14 µM
- GI50 (MALME-3M melanoma): 2.06 µM
- TGI (MALME-3M melanoma): 9.07 µM
- GI50 (MCF7 breast): 0.768 µM
- TGI (MCF7 breast): 2.05 µM
- GI50 (MDA-MB-231 breast): 1.88 µM
- TGI (MDA-MB-231 breast): 8.16 µM
- GI50 (MDA-MB-435): 1.44 µM
- TGI (MDA-MB-435): 6.46 µM
- GI50 (MOLT-4 leukemia): 0.747 µM
- TGI (MOLT-4 leukemia): 4.74 µM
- GI50 (NCI-H226 lung): 1.79 µM
- TGI (NCI-H226 lung): 8.82 µM
- GI50 (NCI-H23 lung): 1.7 µM
- TGI (NCI-H23 lung): 7.6 µM
- GI50 (NCI-H460 lung): 0.744 µM
- TGI (NCI-H460 lung): 1.57 µM
- GI50 (NCI-H522 lung): 0.962 µM
- TGI (NCI-H522 lung): 5.26 µM
- GI50 (NCI/ADR-RES ovarian): > 50 µM
- TGI (NCI/ADR-RES ovarian): > 50 µM
- GI50 (OVCAR-3 ovarian): 1.71 µM
- TGI (OVCAR-3 ovarian): 6.82 µM
- GI50 (OVCAR-4 ovarian): 1.72 µM
- TGI (OVCAR-4 ovarian): 7.06 µM
- GI50 (OVCAR-5 ovarian): 3.66 µM
- TGI (OVCAR-5 ovarian): 11.6 µM
- GI50 (OVCAR-8 ovarian): 1.93 µM
- TGI (OVCAR-8 ovarian): 9.11 µM
- GI50 (PC-3 prostate): 1.55 µM
- TGI (PC-3 prostate): 6.13 µM
- GI50 (RPMI-8226 leukemia): 1.14 µM
- TGI (RPMI-8226 leukemia): 2.89 µM
- GI50 (RXF 393 renal): 1.68 µM
- TGI (RXF 393 renal): 7.45 µM
- GI50 (SF-268 CNS): 1.48 µM
- TGI (SF-268 CNS): 8.06 µM
- GI50 (SF-295 CNS): 1.74 µM
- TGI (SF-295 CNS): 7.04 µM
- GI50 (SK-MEL-2 melanoma): 3.68 µM
- TGI (SK-MEL-2 melanoma): 11.8 µM
- GI50 (SK-MEL-28 melanoma): 2.65 µM
- TGI (SK-MEL-28 melanoma): 9.59 µM
- GI50 (SK-MEL-5 melanoma): 1.22 µM
- TGI (SK-MEL-5 melanoma): 3.68 µM
- GI50 (SK-OV-3 ovarian): 2.51 µM
- TGI (SK-OV-3 ovarian): 9.09 µM
- GI50 (SN12C renal): 1.48 µM
- TGI (SN12C renal): 6.5 µM
- GI50 (SNB-19 CNS): 1.39 µM
- TGI (SNB-19 CNS): 6.58 µM
- GI50 (SNB-75 CNS): 0.918 µM
- TGI (SNB-75 CNS): 5.68 µM
- GI50 (SR leukemia): 0.439 µM
- TGI (SR leukemia): 3.94 µM
- GI50 (SW-620 colon): 1.05 µM
- TGI (SW-620 colon): 5.71 µM
- GI50 (T-47D breast): 1.04 µM
- TGI (T-47D breast): 6.46 µM
- GI50 (TK-10 renal): 2.98 µM
- TGI (TK-10 renal): 11 µM
- GI50 (U251 CNS): 1.05 µM
- TGI (U251 CNS): 5.74 µM
- GI50 (UACC-257 melanoma): 3.73 µM
- TGI (UACC-257 melanoma): 10.5 µM
- GI50 (UACC-62 melanoma): 0.872 µM
- TGI (UACC-62 melanoma): 2.8 µM
- GI50 (UO-31 renal): 6.45 µM
- TGI (UO-31 renal): 15 µM
